US20260274838A1 (PURDUE RESEARCH FOUNDATION, priority 2023, published 2026)
“Also recorded” adds a separate entry of the source.

Tests used:
hSTING = target: T1, hSTING (Homo sapiens, UniProt Q86WV6); assay: STING based fluorescence polarization assay (F-c-di-GMP probe displacement); assay type: binding; conditions: 20 μM compound, 50 nM probe, 10 μM STING, 5 minutes; compared to HSD1077
T1 construct: SUMO; made in house; host or cells: E. coli Rosetta 2 (pLysS)
Protocol: As a preliminary screen, 20 μM of compounds and 50 nM of the probe were incubated with 10 μM of STING for 5 minutes prior to evaluation of fluorescence anisotropy.
50 nM of 2′-Fluo-AHC-c-diGMP (Biolog) was incubated with 10 μM hSTING and 20 μM of screening compounds in dimethyl sulfoxide (DMSO) for 5 minutes in 1× Phosphate buffered saline at room temperature. […] Anisotropy was normalized via equating measurements with 0 μM hSTING to zero. […] Anisotropy was converted to a fraction bound by F-c-di-GMP using the following equation: […]
wherein r refers to the anisotropy value at 10 μM hSTING concentration upon compound addition, rfree refers to the anisotropy value of unbound fluorophore, and Q refers to the ratio of fluorescence intensities between bound and free fluorophore.

RAW ISG Blue macrophages = assay: Interferon-β mRNA levels in RAW cells via qPCR; assay type: cell-based, murine; conditions: pre-treatment 6 hours, then 100 μM cGAMP 3 hours; vs DMSO-treated cells stimulated with cGAMP
Protocol: FIG. 8B illustrates RAW ISG cells were pre-treated with either compound HSD1077 or compound H-151 as a positive control for 6 hours and subsequently stimulated with 100 μM of cGAMP for 3 hours for induction of Interferon-β. mRNA levels were quantified by RT-PCR. Gene expression was normalized with β-actin. Experiments were performed in two biological replicates. Error bars indicate the error of the mean of two independent experiments.
As a secondary analysis, mRNA levels of murine Interferon-β were also quantified via quantitative PCR (qPCR), upon cGAMP stimulation on RAW macrophages with or without compound HSD1077 pre-treatment.
1×10^6 cells were seeded in 6 well plates and incubated for 24 hours to allow for adherence. […] Cells were subsequently harvested, and RNA extraction was performed via the use of TRIzol reagent (Thermo-fisher). 1 μg of RNA harvested from each sample was used for cDNA synthesis using random hexamers, dNTPs, and superscript II reverse transcriptase (Thermo-fisher). […] The forward and reverse primers for the relative quantification of Interferon-β and β-actin were used as reported in Wiser C, Science Reports, 2020, 10, 1-11 and Wang M, ACS Chemical Biology, 2021, 16, 1663-1670, which are hereby specifically incorporated by reference for its teachings regarding the same.

Raw ISG cells = assay: Western blotting of p-STING and p-IRF3 in Raw ISG cells; assay type: cell-based, murine; conditions: 5 μM for 4 hours, then 100 μM cGAMP 3 hours; vs DMSO+cGAMP
RAW ISG Blue cells = assay: Detection of IRF activation in RAW ISG Blue reporter cells (SEAP, QUANTI-Blue); assay type: cell-based, murine
Excerpt: To understand possible modulatory effects of compound HSD1077 on the cGAS-STING axis, the quantification of type 1 interferon expression in-cellulo upon compound HSD1077 treatment, investigated via a commercially available murine macrophage cell line RAW ISG Blue, which express secreted embryonic alkaline phosphatase (SEAP) under the control of an interferon-stimulated gene 54 (ISG54), inducible promoter. Upon the stimulation of pathways, such as cGAS-STING, which activate type 1 interferon production, SEAP would be expressed and can be quantified using a chromogenic detection substrate Quantiblue™. […] Excitedly, concentrations as low as 20 nM caused a noticeable decrease in interferon expression (FIG. 8).
After which, media from each respective well was collected for estimation of IRF activation via SEAP colorimetric assay via QUANTI-blue reagent (Invivogen) as per manufacturer protocols, using a clear 96 well flat bottom plate. 20 μL of the media obtained in each individual well was incubated with 180 μL of QUANTI-Blue™ Solution for 6 hours at 37° C. Absorbance (630 nm) of each well was quantified via Biotek Cytation 5 multi-mode reader.

THP-1 dual cells = assay: Detection of IRF activation in THP-1 dual reporter cells (Lucia luciferase, QUANTI-Luc), cGAMP stimulation; conditions: then 2'-3' cGAMP 24 hours
Protocol: Using THP-1 dual cell lines (Invivogen) featuring a luciferase gene under the control of an ISG54 inducible promoter, relative quantifications of type 1 interferon expression could be achieved through luciferase detection upon cGAS-STING pathway induction.
1×10^5 cells were seeded in 96 well plates and incubated for 24 hours. After which, cells were pre-treated with the drug compound for 1 hour, followed by 100 μM of 2′-3′ cGAMP for induction of the cGAS-STING pathway, and incubated for 24 hours. After which, cell suspension from each respective well was collected and for relative quantification of IRF activation via Lucia luciferase based luminescent assay via QUANTI-Luc™ reagent (Invivogen). 10 μL of the cell suspension obtained in each individual well was added to 50 μL of QUANTI-Luc™ Solution. […] Experiments were performed in biological triplicates, with data reported as the mean and standard deviation of 3 data points.

T1 sequence (Q86WV6 whole entry H232R): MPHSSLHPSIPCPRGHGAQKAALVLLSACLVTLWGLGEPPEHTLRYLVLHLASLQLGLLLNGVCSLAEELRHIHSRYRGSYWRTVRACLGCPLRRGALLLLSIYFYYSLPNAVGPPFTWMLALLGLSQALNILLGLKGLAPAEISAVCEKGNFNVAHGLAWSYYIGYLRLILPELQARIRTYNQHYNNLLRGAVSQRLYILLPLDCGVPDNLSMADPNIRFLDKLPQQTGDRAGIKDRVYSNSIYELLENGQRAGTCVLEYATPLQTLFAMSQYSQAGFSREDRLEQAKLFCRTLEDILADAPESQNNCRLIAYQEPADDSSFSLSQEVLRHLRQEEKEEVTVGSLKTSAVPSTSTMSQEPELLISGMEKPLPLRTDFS

CC(=O)N1CCN(C(=O)c2ccc(-c3nc4ccc5[nH]ncc5c4c4c3CCCC4)cc2)CC1 [Compound 22, 1-(4-(4-(8,9,10,11-tetrahydro-3H-pyrazolo[4,3-a]phenanthridin-7-yl)benzoyl)piperazin-1-yl)ethan-1-one]
STING binding (fraction of F-c-di-GMP probe bound, Fbound), in words (hSTING): reduced binding capabilities

CN1CCN(C(=O)c2ccc(-c3nc4ccc5[nH]ncc5c4c4c3CCCCC4)cc2)CC1 [Compound 23]
STING binding (fraction of F-c-di-GMP probe bound, Fbound), in words (hSTING): negatively impacted STING binding

Cn1ncc2c3c4c(c(-c5cn[nH]c5)nc3ccc21)CCCC4 [Compound 7, 3-Methyl-7-(1H-pyrazol-4-yl)-8,9,10,11-tetrahydro-3H-pyrazolo[4,3-a]phenanthridine]
STING binding (fraction of F-c-di-GMP probe bound, Fbound), in words (hSTING): poor STING binder

O=C1c2ccccc2C(=O)N1C1CCc2c(c(-c3cn[nH]c3)nc3ccc4[nH]ncc4c23)C1 (stereo not drawn) [Compound 16, 2-(7-(1H-pyrazol-4-yl)-8,9,10,11-tetrahydro-3H-pyrazolo[4,3-a]phenanthridin-9-yl)isoindoline-1,3-dione]
STING binding (fraction of F-c-di-GMP probe bound, Fbound), in words (hSTING): not well tolerated

c1n[nH]cc1-c1nc2ccc3[nH]ncc3c2c2c1CCCC2 [HSD1077, 7-(1H-pyrazol-4-yl)-8,9,10,11-tetrahydro-3H-pyrazolo[4,3-a]phenanthridine]
murine Interferon-β mRNA levels (RAW ISG Blue macrophages): dose-dependent reduction in murine Interferon-β levels | phospho-IRF3 level (Raw ISG cells): decreased levels; also recorded: attenuates | phospho-STING level (Raw ISG cells): decreased levels; also recorded: attenuates | type 1 interferon production on treatment with compound alone (agonism) (RAW ISG Blue cells; 24 hours, no cGAMP): did not induce type 1 interferon production; also recorded: non-significant changes in interferon expression levels | type 1 interferon expression after pre-treatment and cGAMP induction (RAW ISG Blue cells; pre-treatment (1 μM or lower) 2 hours, then 100 μM 2'-3' cGAMP 24 hours): can suppress type-1 interferon expression; also recorded: dose-dependent attenuation in type 1 interferon expression; also recorded: attenuated expression of type 1 interferon in a dose-dependent manner | concentration causing a noticeable decrease in interferon expression (RAW ISG Blue cells; pre-treatment before cGAMP): ≤ 20 nM | type 1 interferon expression after pre-treatment and cGAMP stimulation (THP-1 dual cells): can suppress type-1 interferon expression; also recorded: reduced type 1 interferon expression in a dose-dependent manner; also recorded: attenuated expression of interferon in a dose-dependent manner

CCc1cc(-c2cn[nH]c2)nc2ccc3[nH]ncc3c12 [Compound 9, 9-Ethyl-7-(1H-pyrazol-4-yl)-3H-pyrazolo[4,3-f]quinoline]
STING binding (fraction of F-c-di-GMP probe bound, Fbound), in words (hSTING): reduced STING binding

CN1CCN(C(=O)c2ccc(-c3nc4ccc5[nH]ncc5c4c4c3CCCC4)c(F)c2)CC1 [Compound 28, (3-fluoro-4-(8,9,10,11-tetrahydro-3H-pyrazolo[4,3-a]phenanthridin-7-yl)phenyl) (4-methylpiperazin-1-yl)methanone]
STING binding (fraction of F-c-di-GMP probe bound, Fbound), in words (hSTING): generally retained STING binding

c1cc(-c2nc3ccc4[nH]ncc4c3c3c2CCCC3)n[nH]1 [Compound 19, 7-(1H-pyrazol-3-yl)-8,9,10,11-tetrahydro-3H-pyrazolo[4,3-a]phenanthridine]
STING binding (fraction of F-c-di-GMP probe bound, Fbound), in words (hSTING): significant decrease in STING binding

c1n[nH]cc1-c1nc2ccc3[nH]ncc3c2c2c1CCC2 [Compound 10]
STING binding (fraction of F-c-di-GMP probe bound, Fbound), in words (hSTING): reduced STING binding

c1n[nH]cc1-c1nc2ccc3c(c2c2c1CCCC2)OCO3 [Compound 3, 7-(1H-pyrazol-4-yl)-8,9,10,11-tetrahydro-[1,3]dioxolo[4,5-a]phenanthridine]
STING binding (fraction of F-c-di-GMP probe bound, Fbound), in words (hSTING): significant decrease in STING binding

7-(1H-pyrazol-4-yl)-8,9,10,11-tetrahydro-3H-imidazo[4,5-a]phenanthridine [Compound 17]
STING binding (fraction of F-c-di-GMP probe bound, Fbound), in words (hSTING): not well tolerated

Cn1cc(-c2nc3ccc4[nH]ncc4c3c3c2CCCC3)cn1 [Compound 20, 7-(1-Methyl-1H-pyrazol-4-yl)-8,9,10,11-tetrahydro-3H-pyrazolo[4,3-a]phenanthridine]
STING binding (fraction of F-c-di-GMP probe bound, Fbound), in words (hSTING): reduced binding capabilities

CN1CCN(C(=O)c2ccc(-c3nc4ccc5[nH]ncc5c4c4c3CCC4)cc2)CC1 [Compound 24, (4-methylpiperazin-1-yl) (4-(3,8,9,10-tetrahydrocyclopenta[c]pyrazolo[4,3-f]quinolin-7-yl)phenyl)methanone]
STING binding (fraction of F-c-di-GMP probe bound, Fbound), in words (hSTING): negatively impacted STING binding

COc1cc2nc(-c3cn[nH]c3)c3c(c2cc1OC)CCCC3 [Compound 2, 2,3-Dimethoxy-6-(1H-pyrazol-4-yl)-7,8,9,10-tetrahydrophenanthridine]
STING binding (fraction of F-c-di-GMP probe bound, Fbound), in words (hSTING): significant decrease in STING binding

CN1CCN(C(=O)c2ccc(-c3nc4c(F)cc5[nH]ncc5c4c4c3CCCC4)cc2)CC1 [Compound 26, (4-(5-fluoro-8,9,10,11-tetrahydro-3H-pyrazolo[4,3-a]phenanthridin-7-yl)phenyl) (4-methylpiperazin-1-yl)methanone]
STING binding (fraction of F-c-di-GMP probe bound, Fbound), in words (hSTING): negatively affected STING binding

(2-fluoro-4-(8,9,10,11-tetrahydro-3H-pyrazolo[4,3-a]phenanthridin-7-yl)phenyl) (4-methylpiperazin-1-yl)methanone [Compound 27]
STING binding (fraction of F-c-di-GMP probe bound, Fbound), in words (hSTING): negatively affected STING binding

CN1CCN(C(=O)c2ccc(-c3nc4ccc5[nH]ncc5c4c4c3CCCC4)cc2)CC1 [Compound 21, (4-methylpiperazin-1-yl) (4-(8,9,10,11-tetrahydro-3H-pyrazolo[4,3-a]phenanthridin-7-yl)phenyl)methanone]
STING binding (fraction of F-c-di-GMP probe bound, Fbound), in words (hSTING): reduced binding capabilities

CCn1nc(C)cc1C(=O)Nc1nc2cc(C(N)=O)cc(OC)c2n1C/C=C/Cn1c(NC(=O)c2cc(C)nn2CC)nc2cc(C(N)=O)cc(OCCCN3CCOCC3)c21 [DIABZI-3, reference compound]
STING binding (fraction of F-c-di-GMP probe bound, Fbound), in words (hSTING): high probe displacement
